# Assay results from patent publication US4965269A, “Therapeutically active chloro substituted benzimidazoles” (AB Hassle, priority 1989, dated 1990).
# Test: Chemical stability in aqueous buffer solution
# Format: physicochemical
# Conditions: pH 2, 37° C., time after which 10% of the original compound has decomposed
# Method: The chemical stability of the compounds of the invention has been followed kinetically at low concentration at 37° C. in aqueous buffer solution at different pH values. The results in Table 3 show the half life (t 1/2) at pH 7, that is the time period after which half the amount of the original compound remains unchanged, and t10 % at pH 2, that is the time period after which 10% of the original compound has decomposed.
compound,measurement,value
"CCCCOC(=O)OCn1c([S+]([O-])Cc2nccc(OC)c2OC)nc2ccc(Cl)cc21 (stereo not shown) [Example 4, 6-chloro-2[[(3,4-dimethoxy-2pyridinyl)methyl]sulfinyl]-1H-benzimidazole-1-ylmethyl butyl carbonate]","Chemical Stability at pH 2, t 10%",42 h
"COc1ccnc(C[S+]([O-])c2nc3cc(Cl)ccc3n2COC(=O)OCc2ccccc2)c1OC (stereo not shown) [Example 1, 5-chloro-2-[[(3,4-dimethoxy-2-pyridinyl)methyl]sulfinyl]-1H-benzimidazole-1-ylmethyl benzyl carbonate]","Chemical Stability at pH 2, t 10%",14 h
"CCCCOC(=O)OCn1c([S+]([O-])Cc2nccc(OC)c2OC)nc2cc(Cl)ccc21 (stereo not shown) [Example 3, 5-chloro-2-[[(3,4-dimethoxy-2-pyridinyl)methyl]sulfinyl]-1H-benzimidazole-1-ylmethyl butyl carbonate]","Chemical Stability at pH 2, t 10%",21 h
"COc1ccnc(C[S+]([O-])c2nc3ccc(Cl)cc3n2COC(=O)OCc2ccccc2)c1OC (stereo not shown) [Example 2, 6-chloro-2-[[(3,4-dimethoxy-2-pyridinyl)methyl]sulfinyl]-1H-benzimidazole-1-ylmethyl benzyl carbonate]","Chemical Stability at pH 2, t 10%",27 h
